Biological target: SARS-CoV-2 M^pro (3CL^pro), MBP-tagged 3CL protease (Severe acute respiratory syndrome coronavirus 2, UniProt P0DTD1)
Experiment: biochemical

SMILES: O=C(O)c1cc(C(=O)O)c2c(n1)C(=O)C(=O)c1cc(C(=O)O)[nH]c1-2 [PQQ, 4,5-dioxo-4,5-dihydro-1H-pyrrolo[2,3-f] quinoline-2,7,9-tricarboxylic acid]
- IC50: 2800 nM

Source: PMC10688161 (ACS Omega, 2023)
